Experimental data as given in US20230089247A1, “NOVEL COMPOUNDS SUITABLE FOR THE TREATMENT OF DYSLIPIDEMIA” (ZYDUS LIFESCIENCES LIMITED, priority 2019, published 2023).

Columns and labels:
[1] = biological target: PCSK9 (Homo sapiens, UniProt Q8NBP7); assay: BODIPY-LDL uptake assay in HepG2 cells; type: cell-based; details: 5 μg/ml PCSK9, BODIPY-LDL
How it was run: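 Compounds pre-incubated 60 min with 5 μg/ml PCSK9 (0.2% DMSO), then added to HepG2 cells for 16 h; 1 μg/ml BODIPY-LDL added in serum-free medium for 5 h. Fluorescence (Ex 485/Em 520 nm) normalized to protein; PCSK9-only wells = 0%, no-PCSK9 wells = 100% uptake, giving percent increase in LDL uptake.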

[2] = tested on: High Fat Diet C57 Mice; assay: LDL-C lowering activity in high fat diet C57 mice; type: in vivo; details: Mus musculus, po, 168 h; C57 mice on high fat diet; 30 mg/Kg orally once a day, 7 days treatment, blood on day 7; read-out: % Change Vs Vehicle Control in LDLc
Method: LDL-C Lowering Activity—in High Fat Diet C57 Mice
The in-vivo LDL-c lowering for test compound was tested in C57 mice which were kept on high fat diet for 4 weeks and the blood was collected by retro-orbital sinus puncture method under light ether anesthesia on day 0 (pretreatment). Animal are grouped based on LDL-c levels, after that 7 days treatment with vehicle or test compound orally at a dose of 30 mpk dose once a day was given. On completion of treatment on day 7 of the treatment the blood was collected for LDL-c and TC levels measurement.

Chain of PCSK9 (Q8NBP7 153-692): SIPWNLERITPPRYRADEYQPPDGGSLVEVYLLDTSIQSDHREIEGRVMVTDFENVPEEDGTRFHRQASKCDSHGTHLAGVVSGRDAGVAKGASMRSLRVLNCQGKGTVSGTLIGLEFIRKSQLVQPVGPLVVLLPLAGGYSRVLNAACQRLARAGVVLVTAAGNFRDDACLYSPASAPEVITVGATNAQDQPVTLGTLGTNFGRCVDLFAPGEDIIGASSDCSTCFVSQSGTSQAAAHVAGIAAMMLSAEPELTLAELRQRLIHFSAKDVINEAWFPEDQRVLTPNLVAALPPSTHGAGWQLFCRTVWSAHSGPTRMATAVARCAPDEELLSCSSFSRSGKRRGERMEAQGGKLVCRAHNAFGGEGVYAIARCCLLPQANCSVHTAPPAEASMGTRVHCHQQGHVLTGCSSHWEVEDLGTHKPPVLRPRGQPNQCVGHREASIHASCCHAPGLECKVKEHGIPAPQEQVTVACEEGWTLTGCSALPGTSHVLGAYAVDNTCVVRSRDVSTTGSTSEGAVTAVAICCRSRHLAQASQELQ

Structure (SMILES) | % increase in LDL Uptake ([1]; 1 μM test compound) | % increase in LDL Uptake ([1]; 10 μM test compound) | % increase in LDL Uptake ([1]; 30 μM test compound) | change in vivo at 30 mg/kg [2]
O=C(c1ccc(C2(O)COC2)cc1)N1CCC(c2ccc(C(F)(F)F)cc2)CC1 [Example 1, (4-(3-hydroxyoxetan-3-yl)phenyl)(4-(4-(trifluoromethyl)phenyl)piperidin-1-yl)methanone] | 25% | 135% | 130% | -52 ± 4%
O=C(c1cccc(C2(O)COC2)c1)N1CCc2scc(-c3ccc(C(F)(F)F)cc3)c2C1 [Example 176, (3-(3-hydroxyoxetan-3-yl)phenyl)(3-(4-(trifluoromethyl)phenyl)-6,7-dihydrothieno[3,2-c]pyridin-5(4H)-yl)methanone] | 0% | 12% | 68% | –
CCOC1(c2cccc(C(=O)N3CC4CN(c5ccc(C(F)(F)F)cc5)CC4C3)c2)COC1 (stereo not shown) [Example 178, (3-(3-ethoxyoxetan-3-yl)phenyl)(5-(4-(trifluoromethyl)phenyl)hexahydropyrrolo[3,4-c]pyrrol-2(1H)-yl)methanone] | 0% | 51% | 47% | –
O=C(c1cccc(C2(OCC3CC3)COC2)c1)N1CC2CN(c3ccc(C(F)(F)F)cc3)CC2C1 (stereo not shown) [Example 181, (3-(3-(cyclopropylmethoxy)oxetan-3-yl)phenyl)(5-(4-(trifluoromethyl)phenyl)hexahydropyrrolo[3,4-c]pyrrol-2(1H)-yl)methanone] | 3% | 19% | 26% | –
COC1(c2cccc(NC(=O)N3CC4CN(c5ccc(C(F)(F)F)cc5)CC4C3)c2)COC1 (stereo not shown) [Example 183, N-(3-(3-methoxyoxetan-3-yl)phenyl)-5-(4-(trifluoromethyl)phenyl) hexahydropyrrolo[3,4-c]pyrrole-2(1H)-carboxamide] | 32% | 15% | 88% | –
COC1(c2ccc(C(=O)N3CCCN(c4ccc(C(F)(F)F)cc4)CC3)cc2)COC1 [Example 185, (4-(3-methoxyoxetan-3-yl)phenyl)(4-(4-(trifluoromethyl)phenyl)-1,4-diazepan-1-yl)methanone] | 0% | 29% | 109% | –
O=C(c1ccc(C2(O)COC2)cc1)N1CCC2(CCN(c3ccc(C(F)(F)F)cc3)CC2)C1 [Example 186, (4-(3-hydroxyoxetan-3-yl)phenyl)(8-(4-(trifluoromethyl)phenyl)-2,8-diazaspiro[4.5]decan-2-yl)methanone] | 17% | 73% | 31% | –
O=C(c1ccc(C2(OCCO)COC2)cc1)N1CCC(c2ccc(C(F)(F)F)cc2)CC1 [Example 188, (4-(3-(2-hydroxyethoxy)oxetan-3-yl)phenyl)(4-(4-(trifluoromethyl)phenyl)piperidin-1-yl)methanone] | 0% | 152% | 136% | –
CCSCCOC1(c2ccc(C(=O)N3CCC(c4ccc(C(F)(F)F)cc4)CC3)cc2)COC1 [Example 189, (4-(3-(2-(ethylthio)ethoxy)oxetan-3-yl)phenyl)(4-(4-(trifluoromethyl)phenyl)piperidin-1-yl)methanone] | 0% | 116% | 19% | –
CCS(=O)(=O)CCOC1(c2ccc(C(=O)N3CCC(c4ccc(C(F)(F)F)cc4)CC3)cc2)COC1 [Example 190, (4-(3-(2-(ethylsulfonyl)ethoxy)oxetan-3-yl)phenyl)(4-(4-(trifluoromethyl)phenyl)piperidin-1-yl)methanone] | 0% | 90% | 62% | –
COC(=O)c1ccc(C2(O)CC3CN(C(=O)c4ccc(C5(O)COC5)cc4)CC3C2)cc1 (stereo not shown) [Example 198, Methyl 4-(5-hydroxy-2-(4-(3-hydroxyoxetan-3-yl)benzoyl)octahydrocyclopenta[c]pyrrol-5-yl)benzoate] | −8% | 25% | 3% | –
CN1CCN(c2cc(NC(=O)C3CCN(c4ccc(C(F)(F)F)cc4)CC3)cc(C3(O)COC3)c2)CC1 [Example 201, N-(3-(3-hydroxyoxetan-3-yl)-5-(4-methylpiperazin-1-yl)phenyl)-1-(4-(trifluoromethyl)phenyl)piperidine-4-carboxamide] | 0% | 0% | 73% | –
COC1(c2ccc(C(=O)N3CC4=C(C3)CN(c3ccc(C(F)(F)F)cc3)C4)cc2)COC1 [Example 202, (4-(3-methoxyoxetan-3-yl)phenyl)(5-(4-(trifluoromethyl)phenyl)-3,4,5,6-tetrahydropyrrolo[3,4-c]pyrrol-2(1H)-yl)methanone] | 16% | 0% | 36% | –
COC1(c2cccc(C(=O)N3CC4CN(c5ccc(C(F)(F)F)cn5)CC4C3)c2)COC1 (stereo not shown) [Example 208, (3-(3-methoxyoxetan-3-yl)phenyl)(5-(5-(trifluoromethyl)pyridin-2-yl)hexahydropyrrolo[3,4-c]pyrrol-2 (1H)-yl)methanone] | 56% | 14% | 189% | –
COC1(c2ccc(C(=O)N3CC4CN(c5ccc(C(F)(F)F)cn5)CC4C3)cc2)COC1 (stereo not shown) [Example 209, (4-(3-methoxyoxetan-3-yl)phenyl)(5-(5-(trifluoromethyl)pyridin-2-yl)hexahydropyrrolo[3,4-c]pyrrol-2(1H)-yl)methanone] | 20% | 137% | 21% | –
O=C(c1cccc(C2(O)COC2)c1)N1CC2CN(c3ccc(C(F)(F)F)cn3)CC2C1 (stereo not shown) [Example 210, (3-(3-hydroxyoxetan-3-yl)phenyl)(5-(5-(trifluoromethyl)pyridin-2-yl)hexahydropyrrolo[3,4-c]pyrrol-2(1H)-yl)methanone] | 0% | 107% | 0% | –
O=C(c1ccc(C2(O)COC2)cc1)N1CCC(c2ccc(C(F)(F)F)cn2)CC1 [Example 212, (4-(3-hydroxyoxetan-3-yl)phenyl)(4-(5-(trifluoromethyl)pyridin-2-yl)piperidin-1-yl)methanone] | 8% | 4% | 48% | –
COC1(c2ccc(C(=O)N3CCC(c4ccc(C(F)(F)F)nc4)CC3)cc2)COC1 [Example 213, (4-(3-methoxyoxetan-3-yl)phenyl)(4-(6-(trifluoromethyl)pyridin-3-yl)piperidin-1-yl)methanone] | 0% | 0% | 37% | –
O=C(c1ccc(C2(O)COC2)cc1)N1CCN(c2ccc(C(F)(F)F)nc2)CC1 [Example 217, (4-(3-hydroxyoxetan-3-yl)phenyl)(4-(6-(trifluoromethyl)pyridin-3-yl)piperazin-1-yl) methanone] | 0% | 5% | 128% | –
COC1(c2ccc(C(=O)N3CCN(c4ccc(C(F)(F)F)cn4)CC3)cc2)COC1 [Example 218, (4-(3-methoxyoxetan-3-yl)phenyl)(4-(5-(trifluoromethyl)pyridin-2-yl)piperazin-1-yl)methanone] | 0% | 26% | 85% | –
CCOC1(c2ccc(C(=O)N3CCN(c4ccc(C(F)(F)F)cn4)CC3)cc2)COC1 [Example 219, (4-(3-ethoxyoxetan-3-yl)phenyl)(4-(5-(trifluoromethyl)pyridin-2-yl)piperazin-1-yl)methanone] | 4% | 41% | 15% | –
COC1(c2cccc(C(=O)N3CCN(c4ccc(C(F)(F)F)cn4)CC3)c2)COC1 [Example 221, (3-(3-methoxyoxetan-3-yl)phenyl)(4-(5-(trifluoromethyl)pyridin-2-yl)piperazin-1-yl)methanone] | 0% | 28% | 66% | –
